Test results: US9101576B2, “Treatment of inflammatory diseases” (The University of Chicago, priority 2006, dated 2015)

Tests used:
medullary thymocytes = settings: cited from earlier work
B7-2 deficient NOD mice [1] = test: Electrophysiological studies of sciatic nerve function in vivo; design: species or system mouse; settings: FTY720 1 mg/kg oral gavage once daily for 1 month
Protocol: (§1) Female B7-2 deficient NOD mice were used since they are more prone to develop SAP than their male counterparts (Salomon et al., supra). The mice were 7 months of age at the start of the study. Animals were given FTY720 (aqueous solution) at doses of 0.3 mg/kg or 1 mg/kg or vehicle alone by oral gavage once daily for 1 month. The concentrations were chosen based on dose-response studies with regard to the depletion of peripheral lymphocytes, and data from EAE studies in rats (Brinkmann et al., 2002; Fujino et al., 2003).
Electrophysiological studies were performed to assess the effect of FTY720 on sciatic nerve function in vivo in a subset of the study animals. […] FIG. 6 likewise illustrates that FTY720 treatment improves DL and CV (FIG. 6B, showing a summary of the results from experiments performed on 12 nerves from 6 water-treated mice and 14 nerves from 7 FTY720-treated mice) but not the amplitude of sciatic CMAPs (FIG. 6A).

B7-2 deficient NOD mice [2] = test: Clinical scores and grip strength in spontaneous autoimmune polyneuropathy (SAP); format: in vivo, mouse
Protocol: as §1
To determine the effect of FTY720 on clinical scores and grip strength of B7-2 deficient NOD mice, both qualitative and quantitative assessment was performed by blinded lab personnel. For qualitative assessment, a nominal scale (with 0 as normal and 5 as death) described by other investigators (Zhu et al., 2001a) was used. For quantitative assessment, hindlimb and forelimb strength was measured with a grip strength meter (Columbus Instruments). […] Similar results were observed when forelimb and hindlimb strength was assessed quantitatively.

[3] = tested on: peripheral blood lymphocyte; test: Induction of peripheral blood lymphopenia; format: in vivo, mouse
Protocol: as §1
The effectiveness of FTY720 was also monitored by the induction of peripheral blood lymphopenia. The peripheral blood lymphocyte count was decreased to 50-60% of vehicle-treated ones by FTY720 (0.3 mg/kg) (n=4) and to 25-30% by FTY720 (1 mg/kg) (n=3).

B7-2 deficient NOD mice [4] = test: Histological evaluation of inflammatory cell infiltration in sciatic nerve sections; format: in vivo, mouse; settings: 1.0 mg/kg; quantitative (p<0.02) and semi-quantitative (p<0.003) method; n=7
Protocol: as §1
To further evaluate the effect of FTY720 on B7-2 deficient NOD mice, histological evaluation was performed to assess inflammatory cell infiltration. […] For quantitative method, tissue areas were measured by image analysis and the number of inflammatory cells counted at ×20 magnification. The results were averaged and expressed as cells per mm^2 tissue section. For semi-quantitative method, inflammation was graded as: 1, a few scattered mononuclear inflammatory cells often subperineurial; 2, perivenular cuffing with mononuclear inflammatory cells (one or two foci); 3, extensive multifocal perivenular cuffing and widespread endoneurial inflammation.

B7-2 deficient NOD mice [5] = test: Demyelination and loss of myelinated fibers in epon sections; format: in vivo, mouse; settings: 1.0 mg/kg, p<0.015, n=7
Protocol: as §1
Epon sections were prepared from vehicle-treated mice (n=6) and mice treated with 1.0 mg/kg FTY720 (n=7). […] These differences were statistically different with a p value of less than 0.015. The percentage of loss of myelinated fibers in epon sections was assessed by a blinded observer using a grid. Demyelination was graded as follows: 1, isolated demyelinated axons perivascular or scattered; 2, many foci of perivascular demyelination; 3, extensive demyelination, perivascular and confluent.

lymphocyte = settings: cited from earlier work
T cell = settings: cited from earlier work
S1P receptors = settings: transfected cells expressing individual S1P receptors; cited from earlier work
[6] = tested on: neonatal DRG-SC co-cultures; test: Myelination in neonatal DRG-SC co-cultures; format: cell-based
Source text: TNF-α and IFN-γ (labeled as cytokines) acted synergistically to decrease cell viability via NOS induction and ceramide accumulation in immortalized SCs (FIG. 4) (Nagano et al., 2001). Neither cytokine alone induced cell death. These cytokines also exerted a synergistic inhibitory action on myelination in neonatal DRG-SC co-cultures, which is evident after 3 days of treatment.

## CCCCCCCOc1ccc(CC[C@@](C)(N)CO)cc1 [AAL(R)]
Medullary thymocytes
  time to downregulation of CD69: ≤ 2 h

## CCCCCCCCc1ccc(CCC(N)(CO)CO)cc1 [FTY720, 2-amino-2-[2-(4-octylphenyl)ethyl]-1,3-propanediol]
B7-2 deficient NOD mice [1]; sciatic nerve, vehicle 2.59 ± 0.3, p < 0.02
  Distal Latency: 1.58 ± 0.3 ms
B7-2 deficient NOD mice [1]; sciatic nerve, vehicle 14.7 ± 3.0, p < 0.01
  Conduction Velocity: 22.8 ± 3.2 m/s
B7-2 deficient NOD mice [1]; vehicle 3.75 ± 1.8
  Amplitude of sciatic CMAPs: 3.8 ± 0.7 mV
B7-2 deficient NOD mice [2]; 0.3 mg/kg oral once daily for 1 month, p less than 0.03, n=5
  difference in clinical score between 7 months and 8 months: statistically significant
B7-2 deficient NOD mice [2]; 1.0 mg/kg oral once daily for 1 month, grip strength meter
  forelimb and hindlimb grip strength vs vehicle or 0.3 mg/kg: increased grip strength
B7-2 deficient NOD mice [2]; 1.0 mg/kg oral once daily for 1 month, scale 0 normal to 5 death, n=10
  clinical scores, month 7 vs month 8: did not increase between month 7 and month 8
[3]; 0.3 mg/kg oral once daily, n=4
  peripheral blood lymphocyte count, % of vehicle-treated: 50-60%
[3]; 1 mg/kg oral once daily, n=3
  peripheral blood lymphocyte count, % of vehicle-treated: 25-30%
B7-2 deficient NOD mice [4]
  inflammatory cell infiltration vs water-treated mice: decreased inflammatory cell infiltration
B7-2 deficient NOD mice [5]
  percentage of myelinated fibers lost vs vehicle: decrease in the percentage of myelinated fibers lost
lymphocyte
  concentration that elicits lymphocyte apoptosis: > 3 µM
T cell
  T cell chemotactic activity: lacks T cell chemotactic activity

## CCCCCCCCc1ccc(CC[C@](N)(CO)COP(=O)(O)O)cc1 [FTY720-P]
S1P receptors
  agonist activity at S1P receptors: potent agonist of S1P receptors with the exception of S1P2

## CCCCCCCCCCCCC/C=C/[C@@H](O)[C@@H](N)COP(=O)(O)O [S1P, sphingosine 1-phosphate]
T cell; high concentrations are inhibitory
  concentration that elicits T cell chemotaxis: ≤ 0.1 µM

## IFN-γ: pro-inflammatory Th1 cytokine
[6]; IFN-γ at 50-300 U/ml alone
  effect on myelination: No effect on myelination

## TNF-α
[6]; TNF-α 10 ng/ml alone
  effect on myelination: No effect on myelination
[6]; TNF-α 100 ng/ml alone
  effect on myelination: modest inhibitory action
